Assay [1] concerns the target Corticotropin-releasing factor receptor 2 (Rattus norvegicus, UniProt P47866).
In assay [2] the target is T1, Corticotropin-releasing factor receptor 1 (Rattus norvegicus, UniProt P35353).
T1 sequence (P35353 whole entry): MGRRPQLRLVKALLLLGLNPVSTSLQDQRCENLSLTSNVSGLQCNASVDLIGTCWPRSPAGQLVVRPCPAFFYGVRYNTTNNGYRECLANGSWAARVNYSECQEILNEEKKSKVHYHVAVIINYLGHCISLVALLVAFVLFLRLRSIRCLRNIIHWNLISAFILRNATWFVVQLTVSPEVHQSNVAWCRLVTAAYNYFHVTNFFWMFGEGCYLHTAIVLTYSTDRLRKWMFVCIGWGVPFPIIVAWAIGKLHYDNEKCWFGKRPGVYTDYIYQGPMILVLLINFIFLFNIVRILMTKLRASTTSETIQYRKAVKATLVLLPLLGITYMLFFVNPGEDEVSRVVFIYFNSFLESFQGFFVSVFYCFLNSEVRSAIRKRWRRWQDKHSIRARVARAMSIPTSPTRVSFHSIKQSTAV

Each structure is given as a SMILES string. Values joined by “and” are separate entries in the source; they are usually repeats but may differ in a detail not shown here. Equal entries are not always repeated.

This is an account of results in BindingDB's records for PubMed 10215672 (Taisho Pharmaceutical, 1999).

Sequence of Corticotropin-releasing factor receptor 2 (P47866 whole entry): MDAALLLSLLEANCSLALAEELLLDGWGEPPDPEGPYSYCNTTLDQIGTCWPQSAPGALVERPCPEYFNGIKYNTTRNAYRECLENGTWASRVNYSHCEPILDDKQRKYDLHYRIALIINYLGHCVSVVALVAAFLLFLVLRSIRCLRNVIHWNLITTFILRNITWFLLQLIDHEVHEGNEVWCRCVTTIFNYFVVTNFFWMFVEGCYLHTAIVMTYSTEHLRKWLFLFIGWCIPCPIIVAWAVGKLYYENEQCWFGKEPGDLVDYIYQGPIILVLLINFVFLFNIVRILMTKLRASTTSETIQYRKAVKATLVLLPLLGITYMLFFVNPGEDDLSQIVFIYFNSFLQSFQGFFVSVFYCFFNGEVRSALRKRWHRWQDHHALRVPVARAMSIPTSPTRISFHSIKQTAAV

Take `CCCCN(CC)c1nc(C)nc2c1c(C)cn2-c1c(C)cc(C)cc1C`: the results for the Ki in assay [1] and in assay [2] were above 10000 nM and 1.8 nM, respectively.
`COCCN(CCOC)c1nc(C)nc2c1nnn2-c1ccc(C(C)C)cc1Br`: the Ki (usually a dissociation constant, usually derived from enzyme kinetics or from competition with a known ligand) in assay [1] is above 10000 nM; in assay [2], 14.8 nM and 20.7 nM.
In the case of `CCN(c1nc(C)cc(N2CCC=C(c3cccc(F)c3)C2)n1)c1ccc(CC(C)C)cc1Br` [CRA1001], the Ki was above 10000 nM in assay [1]; 22.3 nM and 18.6 nM in assay [2].
